Data from ChEMBL document CHEMBL4619702, “Inhibitors of the Zika virus protease NS2B-NS3” (Bioorg Med Chem Lett, 2020).
Blank lines part the entries; values can stand above or below the molecule they belong to. Where a SMILES comes first, the peptide text is derived from it. The star is where a group is joined. NHBn = c1ccc(CN*)cc1

Legend:
Nonstructural protein 3 [1] = target: T1, Nonstructural protein 3 (Zika virus, UniProt A0A024AXB9); assay: Inhibition of Zika virus NS2B-NS3 protease
Nonstructural protein 3 [2] = target: T1, Nonstructural protein 3; assay: (§1) Inhibition of Zika virus NS2B-NS3 protease by cell based assay
Nonstructural protein 3 [3] = target: T1, Nonstructural protein 3; assay: Binding affinity to Zika virus NS2B-NS3 protease
Genome polyprotein [4] = target: T2, Genome polyprotein (West Nile virus, UniProt P06935); assay: Inhibition of West Nile virus NS2B-NS3 protease
T2 sequence (P06935 1371-1501 limits assumed): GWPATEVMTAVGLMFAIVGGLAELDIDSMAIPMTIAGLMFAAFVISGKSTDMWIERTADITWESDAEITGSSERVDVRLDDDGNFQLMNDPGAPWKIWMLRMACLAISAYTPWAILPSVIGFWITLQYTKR
T2 sequence (P06935 1502-2120 limits assumed): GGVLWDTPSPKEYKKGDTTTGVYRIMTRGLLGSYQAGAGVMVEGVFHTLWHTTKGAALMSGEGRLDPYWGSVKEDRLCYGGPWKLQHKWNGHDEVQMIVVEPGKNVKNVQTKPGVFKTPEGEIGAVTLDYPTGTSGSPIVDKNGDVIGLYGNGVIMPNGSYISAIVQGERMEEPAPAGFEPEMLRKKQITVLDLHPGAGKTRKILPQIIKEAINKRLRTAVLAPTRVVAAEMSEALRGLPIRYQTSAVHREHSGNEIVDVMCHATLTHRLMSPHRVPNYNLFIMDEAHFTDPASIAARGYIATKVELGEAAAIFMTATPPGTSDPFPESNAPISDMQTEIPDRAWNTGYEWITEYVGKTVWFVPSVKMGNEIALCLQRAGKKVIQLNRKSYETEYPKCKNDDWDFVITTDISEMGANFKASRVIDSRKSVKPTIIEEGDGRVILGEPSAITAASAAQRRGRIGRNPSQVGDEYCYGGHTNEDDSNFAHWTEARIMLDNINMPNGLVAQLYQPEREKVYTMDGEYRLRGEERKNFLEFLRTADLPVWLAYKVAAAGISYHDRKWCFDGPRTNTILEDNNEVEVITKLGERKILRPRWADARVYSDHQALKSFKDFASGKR

Genome polyprotein [5] = target: T2, Genome polyprotein; assay: Binding affinity to West Nile virus NS2B-NS3 protease
[6] = target: T3, Nonstructural protein 3 (Zika virus) (UniProt A0A024AXB9); assay: as §1
[7] = target: T3, Nonstructural protein 3 (Zika virus); assay: Inhibition of Zika virus NS2B-NS3 protease assessed as as ratio of K(obs)/[I] using biotin-tagged peptide (P4-P1) as substrate
[8] = Allosteric inhibition of Flavivirus NS2B-NS3 protease
[9] = Allosteric inhibition of Flavivirus NS2B-NS3 protease by cell based assay; conditions: Orthoflavivirus
Nonstructural protein 3 [10] = target: T1, Nonstructural protein 3; assay: Allosteric inhibition of Zika virus NS2B-NS3 protease
Nonstructural protein 3 [11] = target: T1, Nonstructural protein 3; assay: Binding affinity to N-terminal His-tagged Zika virus NS2B-NS3 protease (1 to 187 residues) using Boc-Gly-Arg-Arg-AMC as substrate
Nonstructural protein 3 [12] = target: T1, Nonstructural protein 3; assay: Inhibition of N-terminal His-tagged Zika virus NS2B-NS3 protease (1 to 187 residues) using Boc-Gly-Arg-Arg-AMC as substrate

Ki (Nonstructural protein 3 [1]): 430 nM
SMILES: CN[C@@H](C)C(=O)N[C@H](C(=O)N1CC[C@H](C)[C@H]1C(=O)Nc1ccccc1-c1ncccn1)C1CCCCC1

Ratio [7]: 2.94 ×10⁶ /M/s
SMILES: CN[C@@H](C)C(=O)N[C@H](C(=O)N1CCC[C@H]1c1nc(C(=O)c2ccc(F)cc2)cs1)C1CCCCC1

Ki (Nonstructural protein 3 [1]): 800 to 8900 nM
SMILES: C[C@@H]1CN(CC(=O)N2CC(C)(C)c3nc(CO)c(Cc4ccc(F)cc4)cc32)[C@@H](CN2CCOC[C@H]2C)CN1 [ASTX-660]

Kd (Nonstructural protein 3 [11]): 9000 nM
IC50 (Nonstructural protein 3 [12]): 4100 nM
Ki (Nonstructural protein 3 [12]): 13500 nM
SMILES: CN[C@@H](C)C(=O)N[C@H]1CN(C(=O)CC(C)C)CC[C@H]2CC[C@@H](C(=O)NC(c3ccccc3)c3ccccc3)N2C1=O [XEVINAPANT]

IC50 [8]: 200 nM
EC50 (Nonstructural protein 3 [2]): 300 to 600 nM
SMILES: CC[C@H](NC(=O)[C@H](C)NC)C(=O)N1C[C@@H](O)C[C@H]1Cc1c(-c2[nH]c3cc(F)ccc3c2C[C@@H]2C[C@H](O)CN2C(=O)[C@H](CC)NC(=O)[C@H](C)NC)[nH]c2cc(F)ccc12 [BIRINAPANT]

IC50 (Nonstructural protein 3 [1]): 300 nM
SMILES: CN[C@@H](C)C(=O)N[C@H](C(=O)N1CCC[C@H]1C(=O)Nc1sc(-c2ncco2)nc1-c1ccccc1)C1CCCCC1 [GDC-0917]

The next lines start with the molecule.

SMILES: Cc1ccc(C(=O)Nc2ccc(S(=O)(=O)O)c3cc(S(=O)(=O)O)cc(S(=O)(=O)O)c23)cc1NC(=O)c1cccc(NC(=O)Nc2cccc(C(=O)Nc3cc(C(=O)Nc4ccc(S(=O)(=O)O)c5cc(S(=O)(=O)O)cc(S(=O)(=O)O)c45)ccc3C)c2)c1 [SURAMIN]
IC50 (Nonstructural protein 3 [1]): 47000 nM
Kd (Nonstructural protein 3 [2]): 28000 nM
EC50 (Nonstructural protein 3 [3]): 1930 to 39800 nM

SMILES: CN[C@@H](C)C(=O)N[C@H]1CCCC[C@H]2CC[C@@H](C(=O)NC(c3ccccc3)c3ccccc3)N2C1=O
IC50 (Nonstructural protein 3 [1]): 100 nM

SMILES: CN[C@@H](C)C(=O)N[C@H]1CC[C@H]2CC[C@@H](C(=O)NC(c3ccccc3)c3ccccc3)N2C1=O
IC50 (Nonstructural protein 3 [1]): 1900 nM
IC50 (Genome polyprotein [4]): 1900 nM
Kd (Nonstructural protein 3 [3]): 2000 nM
Kd (Genome polyprotein [5]): 2000 nM

SMILES: Oc1cccc(-c2c3nc(c(-c4cccc(O)c4)c4ccc([nH]4)c(-c4cccc(O)c4)c4nc(c(-c5cccc(O)c5)c5ccc2[nH]5)CC4)C=C3)c1 [TEMOPORFIN]
IC50 (Nonstructural protein 3 [1]): 1100 nM
EC50 (Nonstructural protein 3 [2]): 22 nM
EC90 [6]: 120 nM

SMILES: O=C1OC2(c3ccccc31)c1cc(I)c(O)c(I)c1Oc1c2cc(I)c(O)c1I [ERYTHROSINE]
IC50 (Nonstructural protein 3 [1]): 1700 nM
EC50 (Nonstructural protein 3 [2]): 600 nM

SMILES: C[C@@H]1CN(CC(=O)N2CCCC2)CCN1
IC50 [8]: 380 nM
EC50 [9]: 1000 nM

SMILES: CC(C)C[C@H]1C(=O)N2CCC[C@H]2[C@]2(O)O[C@](NC(=O)[C@@H]3C=C4c5cccc6[nH]c(Br)c(c56)C[C@H]4N(C)C3)(C(C)C)C(=O)N12 [BROMOCRIPTINE]
IC50 (Nonstructural protein 3 [1]): 21600 nM
EC50 (Nonstructural protein 3 [2]): 13000 nM

SMILES: C[C@@H]1CN(CC(=O)N2CC(C)(C)c3ncc(Cc4ccc(F)cc4)cc32)[C@@H](CN2CCOC[C@H]2C)CN1
IC50 (Nonstructural protein 3 [10]): 820 nM

SMILES: CCN(CCO)CCCC(C)Nc1ccnc2cc(Cl)ccc12 (stereo unspecified) [HYDROXYCHLOROQUINE]
Ki (Nonstructural protein 3 [1]): 92300 nM

SMILES: CO[C@@H]1[C@@H](OC(N)=O)[C@@H](O)[C@H](Oc2ccc3c(O)c(NC(=O)c4ccc(O)c(CC=C(C)C)c4)c(=O)oc3c2C)OC1(C)C [NOVOBIOCIN]
IC50 (Nonstructural protein 3 [1]): 14200 nM
EC50 (Nonstructural protein 3 [2]): 24800 nM

SMILES: CC(C)[C@H](NC(=O)[C@H](C)N)C(=O)N1CCC[C@H]1C(=O)NCc1ccccc1 (H-Ala-Val-Pro-NHBn)
Ki (Nonstructural protein 3 [1]): 140 nM
